For one series, the system named is Klebsiella aerogenes E70. Description: Minimum inhibitory concentration (mic), synergistical activity against β-lactamase producing organisms. Conditions: substance alone. It is filed as cell-based. Here is the method:
(§1) The minimum inhibitory concentrations (mic) of ampicillin N-methylcarbamoylclavulanic acid, and mixtures of ampicillin and N-methylcarbamoylclavulanic acid were determined against 4 β-lactamase producing organisms.
(§2) MIC's (in μg/ml) of Ampicillin and N-methylcarbamoylclavulanic acid
(§3) combinations thereof against 4 β-lactamase producing organisms.

In a further series the test system is Escherichia coli JT4. Described as above. In kind it is cell-based. As to conditions: substance alone. Here is the method:
as §1, §2, §3

For the next series, the system named is Proteus mirabilis C889. Described as above. In kind it is cell-based. Conditions: substance alone. Here is the method: as §1, §2, §3
Series [1] relates to Staphylococcus aureus Russell. Described as above. It is filed as cell-based. Conditions: substance alone. As for the experimental part:
as §1, §2, §3

Series [2] can be described thus: Stability of n.m.r. solution (D2O). It is filed as physicochemical. An excerpt:
n.m.r. (D2 O) 2.88 (3H,s, NCH3) 3.20 (1H,d, J 18Hz, 6β-CH) 3.70 (1H,dd, J 18Hz J' 3Hz 6α-CH) 5.7δ (1H,d, J 3Hz, 5-CH); the other protons were obscured by the water peak.

In the case of `CNC(=O)OC/C=C1\O[C@@H]2CC(=O)N2[C@H]1C(=O)O` [N-methylcarbamoylclavulanic acid], the minimum inhibitory concentration (MIC) (as a rule, the least concentration at which growth counts as inhibited) was 500 µg/mL with Klebsiella aerogenes E70, over 500 µg/mL in the series on Escherichia coli JT4, over 500 µg/mL in the series with Proteus mirabilis C889 and 250 µg/mL in series [1].

Turning to `CC1(C)S[C@@H]2[C@H](NC(=O)[C@H](N)c3ccccc3)C(=O)N2[C@H]1C(=O)O` [Ampicillin, ampicillin, reference compound], the MIC in the series with Klebsiella aerogenes E70 is 250 µg/mL; with Escherichia coli JT4, over 5000 µg/mL; in the series on Proteus mirabilis C889, over 500 µg/mL; in series [1] it was 500 µg/mL.

As for `CNC(=O)OC/C=C1\O[C@@H]2CC(=O)N2[C@H]1C(=O)O` [Sodium N-methylcarbamoylclavulanate], the “degradation of the n.m.r. solution” value in series [2] is “signs of rapid degradation”.

Source of the values: patent US4079177A, “Clavulanic acid carbamates” (Beecham Group Limited, priority 1975, dated 1978).
